Consider three compounds from patent publication US7772253B2 (Hoffman-La Roche Inc., priority 2005, dated 2010).

For the assay, the target named is T1, human subtype 5 somatostatin receptor (Homo sapiens, UniProt P35346).
T1 construct: host or cells: CHO cell line, stably transfected; membranes
The assay is described as follows: Binding of 125-I-labeled 11-Tyr somatostatin-14 tracer to membranes of CHO cells expressing SSTR5. The following applies: CHO cell membranes, Ki calculated from IC50 by Cheng-Prussoff equation. As for the experimental part:
A CHO cell line stably transfected with a plasmid encoding the human subtype 5 somatostatin receptor (GenBank accession number D16827) was obtained from Euroscreen. Cells were cultured and used for binding and functional assays.
Membranes of these cells were prepared by sonication in the presence of protease inhibitors and subsequent fractionating centrifugation. The protein concentration in the membrane preparation was determined using a commercial kit (BCA kit, Pierce, USA). Membranes were stored at −80° C. until use. After thawing, membranes were diluted in assay buffer (50 mM TRIS-HCl at pH 7.4, 5 mM MgCl2 and 0.20% BSA (bovine serum albumine)) and subjected to dounce homogenization.
For binding studies, 0.1 ml membrane suspension, corresponding to app. 6×10^−15 mol receptor, was incubated for 1 hour at room temperature with 0.05 nM ^125-I-labeled tracer (11-Tyr somatostatin-14, Perkin-Elmer) and either test compounds in varying concentrations or, for the determination of non-specific binding, 0.001 mM non-labeled somatostatin-14 (Sigma-Aldrich, Buchs, Switzerland). The incubation was stopped by filtration through GF/B glassfiber filters (Unifilter, Perkin-Elmer) and washing with ice-cold wash buffer (50 mM Tris-HCl at pH 7.4). The bound radioactivity was measured after application of a scintillation cocktail (Microscint 40, Perkin-Elmer) and expressed as disintegrations per minute (dpm).
The receptor concentration was determined in a prior saturation experiment where a fixed, arbitrary amount of membranes was incubated with a concentration range of radio-labeled tracer. This allows estimating the total number of specific binding sites per amount of protein (i.e. Bmax), typically between 1 and 5 pmol/mg.
The concentration of the test compound required to result in half maximal inhibition of binding of the radio-labeled tracer (IC50) was estimated from a concentration-versus-dpm graph. The binding affinity (Ki) was calculated from the IC50 by applying the Cheng-Prussoff equation for single binding sites.

As usually defined, the Ki is a dissociation constant, usually derived from enzyme kinetics or from competition with a known ligand.

Structures are written as SMILES.

T1 sequence (P35346 whole entry): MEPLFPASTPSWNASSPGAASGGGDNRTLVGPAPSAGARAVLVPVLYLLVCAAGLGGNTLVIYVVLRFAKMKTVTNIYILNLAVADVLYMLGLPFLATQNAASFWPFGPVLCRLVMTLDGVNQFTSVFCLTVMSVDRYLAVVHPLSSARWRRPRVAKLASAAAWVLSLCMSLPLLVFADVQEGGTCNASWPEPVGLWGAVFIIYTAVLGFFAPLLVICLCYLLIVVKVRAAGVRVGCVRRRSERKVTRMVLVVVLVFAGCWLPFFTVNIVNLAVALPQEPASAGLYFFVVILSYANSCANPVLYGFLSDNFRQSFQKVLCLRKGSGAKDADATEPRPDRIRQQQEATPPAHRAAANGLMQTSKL

As to `CCOc1cc(CN2CCC(NC(=O)c3cccc(C(N)=O)c3)CC2)ccc1Cl` [Example 6], the Ki was 126 nM.
Next, `CCOc1cc(CN2CCC(NC(=O)c3cncc(C)c3)CC2)ccc1Cl` [Example 30, N-[1-(4-Chloro-3-ethoxy-benzyl)piperidin-4-yl]-5-methyl-nicotinamide]: 38 nM; `CCOC(=O)c1c(OCC)cc(CN2CCC(NC(=O)c3cncc(C)c3)CC2)cc1OCC` [Example 35, N-[1-(3,5-Diethoxy-4-ethoxycarbonyl-benzyl)piperidin-4-yl]-5-methyl-nicotinamide]: 19 nM.
